Source: patent publication US20240376163A1, “PEPTIDE FOR INHIBITING CALCINEURIN AND USE THEREOF” (Seoul National University R&DB Foundation, priority 2023, published 2024)

Test system: His6-tagged CNA
Experiment: In vitro peptide competition assay
Format: binding
Conditions: VIVIT 15-mer and CABIN1-L-1 peptide, molar ratio 1:50 to 1:400
Description: In FIG. 4A, an in vitro peptide competition assay was performed using VIVIT 15-mer and CABIN1-L-1 peptide in a dose-dependent manner. The molar ratio of GST-tagged peptide to competing peptide ranged from 1:50 to 1:400. In FIG. 4B, a mammalian two-hybrid assay was performed using VP16 AD-CNAβ2 and GAL4 DBD-peptide in HEK293T cells treated or not-treated with 1 μM ionomycin. The pM empty vector was used as a negative control. In FIG. 4C, a calcineurin cellular activity assay was performed using Jurkat T cells expressing HA-mCherry-tagged peptides. Jurkat T cells expressing only HA-mCherry were used as negative controls, and cells treated with FK506 were used as positive controls. […] Purified GST was used as a negative control. All experiments were repeated three times, and data were expressed as mean±standard deviation. Statistical differences were determined using one-way analysis of variance. * p<0.05, NS: no statistical significance, NC: negative control.

PEITVTPPTP [CABIN1-L-1-2]
competition for CNA binding: dose-dependently interfered with the interaction between GST-tagged VIVIT peptide and His6-tagged CNA
